Test system: cervical carcinoma cells (HeLa)
Assay: Cell deformability measurement of drug-treated HeLa cells in microfluidic extensional flow (cytoskeletal disruption)
Type: cell-based
Experimental: Still referring to FIG. 4, post-processing (operation 450) is conducted on the data 80 to determine cell size, cell deformation, and cell circularity. The cells 50 passing through the system 10 may either be of a known phenotype or an unknown phenotype as illustrated by operation 400. As part of the post processing operation 450, the size of the cell 50 prior to entering the extensional region 40 is determined. The cell diameter (d) is determined as the average of the minimum cell diameters at […] to horizontal prior to entering the extensional region 40 (approximately four (4) frames prior to entering extension region 40). By taking the size measurements from the vertical axis, noise due to blur attributed to high velocities in the horizontal direction is reduced. As the cell 50 enters the extension region 40 and changes trajectory the deformability and circularity parameters are measured. In the frame where the largest deformation is calculated, the corresponding circularity is recorded as well. The deformability parameter is determined by the ratio a/b of the maximum diameter (a) in the vertical direction at 90°±30° to the minimum diameter (b) in the horizontal direction at 0°±30°. The circularity parameter is calculated by (4πA/L^2) wherein A is the area of the observed cell and L is the perimeter of the cell. […]

In the case of `C/C1=C/C(=O)O[C@@H]2C[C@@H](CC[C@H](C)/C=C\C=C\CC1)O[C@@](O)([C@@H]1CSC(=O)N1)C2` [Latrunculin, Latrunculin A], the “cell deformability (a/b) versus untreated HeLa control” value (HeLa cells incubated in 0.1 μM Latrunculin A for 4 hours prior to deformability assay) is reported as “significantly more deformable”.

`COC(=O)Nc1nc2ccc(C(=O)c3cccs3)cc2[nH]1` [Nocodazole] was tested, and the “cell deformability (a/b) versus untreated HeLa control” value (HeLa cells incubated in 2 μM nocodazole for 1 hour prior to deformability assay) was “more rigid than untreated cells”.
